{"source": "patent US20090239812A1", "about": "“USE OF C7 SUGARS IN PREVENTION AND TREATMENT OF MYCOSES” (Laboratoires Expanscience, priority 2006, published 2009)", "origin": "cited, not measured here", "test_system": "Ehrlich's ascites tumor cells", "settings": "perseitol associated with a potassium ion; Shibuya et al. 1999"}
{"smiles": "OCC(O)C(O)C(O)C(O)C(O)CO", "note": "(stereo not shown) [perseitol, Perseitol]", "values": [{"measurement": "incorporation of 3H-leucine", "result": "inhibits"}]}
